Values of other authors in US20220125811A1, “INJECTABLE COMPOSITION FOR INDUCING LIPOLYSIS AND METHOD USING THE SAME” (priority 2020, published 2022).

Conditions: half saline; 5 mEq sodium bicarbonate (8.4%); 6 cc multivitamin formulation; 10 cc amino acid formulation

SMILES: O=C([O-])O.[Na+] [sodium bicarbonate (8.4%), sodium bicarbonate]
- osmolarity of the ingredient amount used in the calculation: 10 mOsm
